# Earlier results, collected in patent US20120157536A1, “COMPOSITION FOR TRANSDERMAL ADMINISTRATION OF NON-STEROIDAL ANTI-FLAMMATORY DRUG” (Polytherapeutics, Inc., priority 2010, published 2012).
structure (smiles),measurement,setting,value
"O=C(O)Cc1ccccc1Nc1c(Cl)cccc1Cl [Diclofenac, 2-(2,6-dichloro-anilino)-benzeneacetic acid]","Diclofenac Clearance, Cl",Goodman & Gilman,4.2 mL/min/kg
same,Minimum effective diclofenac blood concentration,Nishihata et al. 1988,50 ng/mL
